For this series, the system named is P388. The experiment in a line: Cytotoxicity against mouse P388 cells at 12.5 ug/mL. Type of series: cell-based.

The source of these data is ChEMBL document CHEMBL1142059, “Excelsione, a depsidone from an endophytic fungus isolated from the New Zealand endemic tree Knightia excelsa” (J Nat Prod, 2007).

The structures appear in SMILES notation.

As to `Cc1cc(O)c(CO)c2c1C(=O)Oc1c(C)c3c(c(O)c1O2)C(=O)OC3` [EXCELSIONE], the Activity result is reported as “Not Active”.
